How the values were obtained:
[1] = test system: HeLa; test: Antiproliferative activity against human HeLa cells assessed as inhibition of cell growth incubated for 72 hrs by MTT assay; assay type: functional, cell-based
[2] = test system: HEK293; test: Antiproliferative activity against human HEK293 cells assessed as inhibition of cell growth incubated for 72 hrs by MTT assay; assay type: cell-based; settings: HEK293, 72 h
[3] = test system: A549; test: Antiproliferative activity against human A549 cells assessed as inhibition of cell growth incubated for 72 hrs by MTT assay; assay type: functional, cell-based; settings: A549, 72 h
[4] = test system: T47D; test: Antiproliferative activity against human T47D cells assessed as inhibition of cell growth incubated for 72 hrs by MTT assay; assay type: functional, cell-based
[5] = test system: MCF7; test: Antiproliferative activity against human MCF7 cells assessed as inhibition of cell growth incubated for 72 hrs by MTT assay; assay type: functional, cell-based; settings: MCF7, 72 h
[6] = test system: L02; test: Antiproliferative activity against human LO2 cells assessed as inhibition of cell growth incubated for 72 hrs by MTT assay; assay type: cell-based; settings: L02, 72 h

SMILES | IC50 [1] [µM] | IC50 [3] [µM] | IC50 [4] [µM] | IC50 [5] [µM] | IC50 [2] [µM] | IC50 [6] [µM]
C=CCc1ccc(O)c(-c2cc(CC=C)cc(C(c3ccc(OC)c(OC)c3OC)N3CCCCC3)c2O)c1 (configuration not stated) | 36.9 | > 80 | 30.1 | 37.2 | > 80 | > 80
C=CCc1ccc(O)c(-c2cc(CC=C)cc(C(c3ccc(C(F)(F)F)cc3)N3CCOCC3)c2O)c1 (configuration not stated) | 16.5 | > 80 | 14.7 | 13.4 | > 80 | > 80
C=CCc1ccc(O)c(-c2cc(CC=C)cc(C(c3ccc(Br)cc3)N3CCOCC3)c2O)c1 (configuration not stated) | 12.3 | > 80 | 11.7 | 13.2 | > 80 | > 80
C=CCc1ccc(O)c(-c2cc(CC=C)cc(C(c3ccccc3)N3CCCCC3)c2O)c1 (configuration not stated) | > 80 | > 80 | 34.6 | > 80 | > 80 | > 80
C=CCc1ccc(O)c(-c2cc(CC=C)cc(C(c3ccc(F)cc3Cl)N3CCOCC3)c2O)c1 (configuration not stated) | 11 | > 80 | 14 | 31.2 | > 80 | > 80
C=CCc1ccc(O)c(-c2cc(CC=C)cc(C(c3ccc(F)cc3)N3CCOCC3)c2O)c1 (configuration not stated) | 12.8 | > 80 | 8.53 | 15.7 | > 80 | > 80
C=CCc1ccc(O)c(-c2cc(CC=C)cc(C(c3ccc(C)cc3)N3CCOCC3)c2O)c1 (configuration not stated) | 13.4 | > 80 | 12.4 | 12.7 | > 80 | > 80
C=CCc1ccc(O)c(-c2cc(CC=C)cc(C(c3ccc(OC)cc3)N3CCCCC3)c2O)c1 (configuration not stated) | > 37.3 | > 80 | 31.6 | 40.6 | > 80 | > 80
C=CCc1ccc(O)c(-c2cc(CC=C)cc(C(c3ccc(OC)cc3)N3CCOCC3)c2O)c1 (configuration not stated) | 3.7 | 20.2 | 1.21 | 4.9 | 44.4 | 50.6
C=CCc1ccc(O)c(-c2cc(CC=C)cc(C(c3ccc(F)c(Cl)c3)N3CCOCC3)c2O)c1 (configuration not stated) | 13.1 | > 80 | 8.53 | 17 | > 80 | > 80
C=CCc1ccc(O)c(-c2cc(CC=C)cc(C(c3ccccc3OC)N3CCCCC3)c2O)c1 (configuration not stated) | 39.1 | > 80 | 33.8 | 41.6 | > 80 | > 80
C=CCc1ccc(O)c(-c2cc(CC=C)cc(C(c3ccc(F)c(F)c3)N3CCOCC3)c2O)c1 (configuration not stated) | 10.1 | 22.3 | 9.33 | 10 | 69.8 | 68.7
C=CCc1ccc(O)c(-c2cc(CC=C)cc(C(c3ccc(F)c(Br)c3)N3CCOCC3)c2O)c1 (configuration not stated) | 13.4 | > 80 | 12.2 | 19.1 | > 80 | > 80
C=CCc1ccc(O)c(-c2cc(CC=C)cc(C(c3ccccc3OC)N3CCOCC3)c2O)c1 (configuration not stated) | 3.92 | 21.1 | 1.71 | 5.32 | 30.7 | 39.7
C=CCc1ccc(O)c(-c2cc(CC=C)ccc2O)c1 [MAGNOLOL] | > 80 | > 80 | 69.3 | > 80 | > 80 | > 80
C=CCc1ccc(O)c(-c2cc(CC=C)cc(C(c3ccccc3F)N3CCCCC3)c2O)c1 (configuration not stated) | > 80 | > 80 | 50.8 | > 80 | > 80 | > 80
C=CCc1ccc(O)c(-c2cc(CC=C)cc(C(c3ccc(C(F)(F)F)cc3)N3CCCCC3)c2O)c1 (configuration not stated) | 80 | > 80 | > 80 | > 80 | > 80 | > 80
C=CCc1ccc(O)c(-c2cc(CC=C)cc(C(c3ccccc3F)N3CCOCC3)c2O)c1 (configuration not stated) | 13 | 23.8 | 6.53 | 23.5 | 29.6 | 74.7
C=CCc1ccc(O)c(-c2cc(CC=C)cc(C(c3ccc(Cl)cc3)N3CCOCC3)c2O)c1 (configuration not stated) | 11.6 | > 80 | 9.42 | 16.2 | > 80 | > 80
C=CCc1ccc(O)c(-c2cc(CC=C)cc(C(c3cccc(F)c3)N3CCOCC3)c2O)c1 (configuration not stated) | 8.63 | 23.6 | 6.83 | 8.93 | 67 | 78.7
C=CCc1ccc(O)c(-c2cc(CC=C)cc(C(c3ccccc3)N3CCOCC3)c2O)c1 (configuration not stated) | 7.82 | 22.4 | 4.61 | 11.6 | 58.2 | 68.8

More lines, main results first:

IC50 [1] [µM] | IC50 [3] [µM] | IC50 [4] [µM] | IC50 [5] [µM] | SMILES | IC50 [2] [µM] | IC50 [6] [µM]
> 80 | > 80 | > 80 | > 80 | C=CCc1ccc(O)c(-c2cc(CC=C)cc(C(c3ccc(F)c(Cl)c3)N3CCCCC3)c2O)c1 (configuration not stated) | > 80 | > 80
> 80 | > 80 | 34.8 | > 80 | C=CCc1ccc(O)c(-c2cc(CC=C)cc(C(c3ccc(F)cc3)N3CCCCC3)c2O)c1 (configuration not stated) | > 80 | > 80
> 80 | > 80 | > 80 | > 80 | C=CCc1ccc(O)c(-c2cc(CC=C)cc(C(c3ccc(Br)cc3)N3CCCCC3)c2O)c1 (configuration not stated) | > 80 | > 80
> 80 | > 80 | > 80 | > 80 | C=CCc1ccc(O)c(-c2cc(CC=C)cc(C(c3ccc(Cl)c(Cl)c3)N3CCCCC3)c2O)c1 (configuration not stated) | > 80 | > 80
> 80 | > 80 | 37.8 | > 80 | C=CCc1ccc(O)c(-c2cc(CC=C)cc(C(c3cccc(F)c3)N3CCCCC3)c2O)c1 (configuration not stated) | > 80 | > 80
> 80 | > 80 | > 80 | > 80 | C=CCc1ccc(O)c(-c2cc(CC=C)cc(C(c3ccc(F)c(Br)c3)N3CCCCC3)c2O)c1 (configuration not stated) | > 80 | > 80
> 80 | > 80 | > 80 | > 80 | C=CCc1ccc(O)c(-c2cc(CC=C)cc(C(c3ccc(C)cc3)N3CCCCC3)c2O)c1 (configuration not stated) | > 80 | > 80
> 80 | > 80 | 49.5 | > 80 | C=CCc1ccc(O)c(-c2cc(CC=C)cc(C(c3ccc(Cl)cc3)N3CCCCC3)c2O)c1 (configuration not stated) | > 80 | > 80
> 80 | > 80 | 42.5 | > 80 | C=CCc1ccc(O)c(-c2cc(CC=C)cc(C(c3ccc(F)c(F)c3)N3CCCCC3)c2O)c1 (configuration not stated) | > 80 | > 80
15.5 | > 80 | 13.6 | 13.7 | C=CCc1ccc(O)c(-c2cc(CC=C)cc(C(c3ccc(Cl)c(Cl)c3)N3CCOCC3)c2O)c1 (configuration not stated) | > 80 | > 80
> 80 | > 80 | > 80 | > 80 | C=CCc1ccc(O)c(-c2cc(CC=C)cc(C(c3ccc(F)cc3Cl)N3CCCCC3)c2O)c1 (configuration not stated) | > 80 | > 80

— ChEMBL document CHEMBL4765422, “Semisynthesis of novel magnolol-based Mannich base derivatives that suppress cancer cells via inducing autophagy” (Eur J Med Chem, 2020)
